Measurements as given in patent US8802664B2 (Bioproject, priority 2010, dated 2014).

How the values were obtained:
human H4 receptor = molecular target: T1, human H4 receptor (Homo sapiens, UniProt Q9H3N8); test: [3H]Histamine binding on membranes of CHO cells stably expressing human H4 receptor
T1 construct: expressed in transfected cells
How it was run: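 Nonspecific signal was taken as that remaining with 10 μM JNJ 7777120 present. Assays contained 20 μg CHO-derived hH4 membrane protein in Tris/HCl–EDTA buffer (pH 7.4) and were terminated on polyethyleneimine-soaked filters, with bound tritium quantified by scintillation.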

T1 sequence (Q9H3N8 whole entry): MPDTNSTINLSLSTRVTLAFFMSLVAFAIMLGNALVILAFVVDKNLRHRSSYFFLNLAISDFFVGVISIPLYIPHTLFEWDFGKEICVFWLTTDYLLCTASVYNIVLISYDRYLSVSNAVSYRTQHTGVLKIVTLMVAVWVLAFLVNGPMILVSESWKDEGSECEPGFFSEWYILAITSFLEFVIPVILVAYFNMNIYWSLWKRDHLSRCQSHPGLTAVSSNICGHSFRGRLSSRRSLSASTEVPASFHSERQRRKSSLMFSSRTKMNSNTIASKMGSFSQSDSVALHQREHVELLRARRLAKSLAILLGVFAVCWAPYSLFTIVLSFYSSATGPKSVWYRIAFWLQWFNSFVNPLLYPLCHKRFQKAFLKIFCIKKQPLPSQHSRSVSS

Row | Compound | melting point [°C] | Ki or IC50 activity class (human H4 receptor) [nM]
1 | CN1CCC(OC(c2cccc(Br)c2)c2nc3cc(F)ccc3[nH]2)CC1 (single isomer, unassigned) [Example 567, 2-[(3-bromophenyl)(1-methylpiperidin-4-yloxy)methyl]-5-fluoro-1H-benzimidazole] | 89 | < 300
2 | CN1CCC(OC(c2nc3ccccc3[nH]2)c2c(F)cc(Cl)cc2F)CC1 (stereo not drawn) [Example 527] | 195 | < 30
3 | CCCOc1ccc(O)c(C(OC2CCN(C)CC2)c2nc3ccccc3[nH]2)c1 (stereo not drawn) [Example 603] | 120 | < 300
4 | CN1CCC(OC(c2nc3ccccc3[nH]2)c2cc(SCCCF)ccc2O)CC1 (stereo not drawn) [Example 612] | 128 | < 30
5 | CN1CCC(OC(c2cccc(C#CCCO)c2)c2nc3ccccc3[nH]2)CC1 (stereo not drawn) [Example 191, 4-{3-[(1H-benzimidazol-2-yl)(1-methylpiperidin-4-yloxy)methyl]phenyl}but-3-yn-1-ol] | 104 to 108 | < 300
6 | CN1CCC(OC(c2nc3ccccc3[nH]2)c2ccc(F)cc2O)CC1 (stereo not drawn) [Example 584] | 140 | < 30
7 | Cc1cc(F)c(O)c(C(OC2CCN(C)CC2)c2nc3ccccc3[nH]2)c1 (stereo not drawn) [Example 595] | 144 | < 300
8 | COc1cccc(C(NC2CCN(C)CC2)c2nc3ccccc3[nH]2)c1 (stereo not drawn) [Example 70, [(1H-benzimidazol-2-yl)(3-methoxyphenyl)methyl](1-methylpiperidin-4-yl)amine] | 182 | < 300
9 | CN1CCC(OC(c2cccc(CCC3CNC3)c2)c2nc3ccccc3[nH]2)CC1 (stereo not drawn) [Example 392, 2-[[3-(2-azetidin-3-ylethyl)phenyl](1-methylpiperidin-4-yloxy)methyl]-1H-benzimidazole] | 146 | < 1000
10 | CN1CCC(OC(c2cccc(C#CCCCO)c2)c2nc3ccccc3[nH]2)CC1 (stereo not drawn) [Example 192, 5-{3-[(1H-benzimidazol-2-yl)(1-methylpiperidin-4-yloxy)methyl]phenyl}pent-4-yn-1-ol] | 85 | < 300
11 | COc1ccc(COc2cccc(C(NC3CCN(C)CC3)c3nc4ccccc4[nH]3)c2)cc1 (stereo not drawn) [Example 124, {(1H-benzimidazol-2-yl)[3-(4-methoxybenzyloxy)phenyl]methyl}(1-methylpiperidin-4-yl)amine] | 84 | < 30
12 | CN1CCC(OC(c2nc3ccccc3[nH]2)c2cc(-c3ccccc3)ccc2O)CC1 (stereo not drawn) [Example 589] | 140 | < 1000
13 | CN1CCC(OC(c2cccc(C#CCCNC(=N)NC(=O)OC(C)(C)C)c2)c2nc3ccccc3s2)CC1 (stereo not drawn) [Example 399, N-tert-butoxycarbonyl-N′-(4-{3-[(benzothiazol-2-yl)(1-methylpiperidin-4-yloxy)methyl]phenyl}but-3-ynyl)guanidine] | 120 | < 300
14 | Cc1ccc(C(OC2CCN(C)CC2)c2nc3ccccc3[nH]2)c(C)c1 (stereo not drawn) [Example 541] | 120 | < 30
15 | CN1CCC(NC(c2cccc(O)c2)c2nc3ccccc3[nH]2)CC1 (stereo not drawn) [Example 126, 3-[(1H-benzimidazol-2-yl)(1-methylpiperidin-4-ylamino)methyl]phenol] | 230 | < 300
16 | CN1CCC(OC(c2cccc(C#CCCCCNC(=N)NC(=O)OC(C)(C)C)c2)c2nc3ccccc3s2)CC1 (stereo not drawn) [Example 341, N-tert-butoxycarbonyl-N′-(6-{3-[(benzothiazol-2-yl)(1-methylpiperidin-4-yloxy)methyl]phenyl}hex-5-ynyl)guanidine] | 130 | < 300
17 | CN1CCC(OC(c2nc3ccccc3[nH]2)c2cc(C(F)(F)F)ccc2O)CC1 (stereo not drawn) [Example 598] | 135 | < 300
18 | CN1CC=C(SC(c2cccc(Br)c2)c2nc3ccccc3[nH]2)CC1 (stereo not drawn) [Example 530, 2-[(3-bromophenyl)(1-methyl-1,2,3,6-tetrahydropyridin-4-ylsulfanyl)methyl]-1H-benzimidazole] | 189 | < 1000
19 | Cc1ccc(C(OC2CCN(C)CC2)c2nc3ccccc3[nH]2)cc1Cl (stereo not drawn) [Example 552] | 86 | < 300
20 | Cc1ccc(COc2cccc(C(NC3CCN(C)CC3)c3nc4ccccc4[nH]3)c2)cc1 (stereo not drawn) [Example 130, {(1H-benzimidazol-2-yl)[3-(4-methylbenzyloxy)phenyl]methyl}(1-methylpiperidin-4-yl)amine] | 87 | < 300
21 | CCOC(=O)NCCCC#Cc1ccc(F)c(C(OC2CCN(C)CC2)c2nc3cc(F)ccc3[nH]2)c1 (stereo not drawn) [Example 570] | 95 | < 300

Row | Compound | melting point [°C] | Ki or IC50 activity class (human H4 receptor) [nM]
22 | CN1CCC(OC(c2nc3ccccc3[nH]2)c2ccc(F)c(F)c2O)CC1 (stereo not drawn) [Example 625, 6-[(1H-benzimidazol-2-yl)(1-methylpiperidin-4-yloxy)methyl]-2,3-difluorophenol] | 184 | < 30
23 | CN1CCC(OC(c2nc3ccccc3[nH]2)c2cc(OCCCF)ccc2O)CC1 (stereo not drawn) [Example 606] | 114 | < 300
24 | CN1CCC(OC(c2cccc(C#CCO)c2)c2nc3ccccc3[nH]2)CC1 (stereo not drawn) [Example 190, 3-{3-[(1H-benzimidazol-2-yl)(1-methylpiperidin-4-yloxy)methyl]phenyl}prop-2-yn-1-ol] | 117 to 120 | < 300
25 | CN1CCC(OC(c2nc3ccccc3[nH]2)c2cc(F)ccc2F)CC1 (stereo not drawn) [Example 424, 2-[(2,5-difluorophenyl)(1-methylpiperidin-4-yloxy)methyl]-1H-benzimidazole] | 140 | < 300
26 | CN1CCC(OC(c2ccccc2)c2nc3ccccc3[nH]2)C1 (stereo not drawn) [Example 272, 2-[(1-methylpyrrolidin-3-yloxy)phenyl-methyl]-1H-benzimidazole] | 53 | < 1000
27 | CN1CCC(NC(c2cccc(OCc3ccccc3)c2)c2nc3ccccc3[nH]2)CC1 (stereo not drawn) [Example 65, [(1H-benzimidazol-2-yl)(3-benzyloxyphenyl)methyl](1-methylpiperidin-4-yl)amine] | 78 | < 30
28 | CN1CCC(OC(c2cccc(Br)c2)c2nc3ccccc3[nH]2)CC1 (single isomer, unassigned) [Example 564, 2-[(3-bromophenyl)(1-methylpiperidin-4-yloxy)methyl]-1H-benzimidazole] | 85 | < 30
29 | CN1CCC(OC(c2cccc(-c3ccc(NC(=O)OC(C)(C)C)cc3)c2)c2nc3ccccc3[nH]2)CC1 (stereo not drawn) [Example 138, {3′-[(1H-benzimidazol-2-yl)(1-methylpiperidin-4-yloxy)methyl]biphenyl-4-yl}carbamic acid tert-butyl ester] | 135 | < 300
30 | CN1CCC(OC(c2nc3ccccc3[nH]2)c2ccccc2Cl)CC1 (stereo not drawn) [Example 151, 2-[(2-chlorophenyl)(1-methylpiperidin-4-yloxy)methyl]-1H-benzimidazole] | 212 | < 300
31 | CN1CCC(OC(c2nc3ccccc3[nH]2)c2ccc(OC(F)(F)F)cc2O)CC1 (stereo not drawn) [Example 621] | 133 | < 30
32 | Cc1ccc(O)c(C(OC2CCN(C)CC2)c2nc3ccccc3[nH]2)c1 (stereo not drawn) [Example 578, 2-[(1H-benzimidazol-2-yl)(1-methylpiperidin-4-yloxy)methyl]-4-methylphenol] | 151 | < 30
33 | Cc1cccc(C(OC2CCN(C)CC2)c2nc3ccccc3[nH]2)c1O (stereo not drawn) [Example 586] | 111 | < 30
34 | Cc1ccc(C(OC2CCN(C)CC2)c2nc3cc(F)ccc3[nH]2)c(F)c1 (stereo not drawn) [Example 548] | 90 | < 30
35 | CN1CCC(OC(c2ccccc2)c2nc3cc(Br)ccc3[nH]2)CC1 (stereo not drawn) [Example 170, 5-bromo-2-[(1-methylpiperidin-4-yloxy)phenylmethyl]-1H-benzimidazole] | 143 | < 300
36 | Cc1cc(F)cc(C(OC2CCN(C)CC2)c2nc3ccccc3[nH]2)c1O (stereo not drawn) [Example 607] | 111 | < 1000
37 | CN1CCC(OC(c2nc3ccccc3[nH]2)c2c(O)cccc2Cl)CC1 (stereo not drawn) [Example 594] | 145 | < 30
38 | CN1CCC(OC(c2ccc(Br)cc2)c2nc3ccccc3[nH]2)CC1 (stereo not drawn) [Example 204, 2-[(4-bromophenyl)(1-methylpiperidin-4-yloxy)methyl]-1H-benzimidazole] | 122 | < 300
39 | CN1CCC(NC(c2cccc(OCCCCN)c2)c2nc3ccccc3s2)CC1 (stereo not drawn) [Example 387, {[3-(4-aminobutoxy)phenyl]benzothiazol-2-yl-methyl}(1-methylpiperidin-4-yl)amine] | 67 | < 30
40 | CN1CCC(OC(c2cccc(SCCCN)c2)c2nc3ccccc3[nH]2)CC1 (stereo not drawn) [Example 368, 3-{3-[(1H-benzimidazol-2-yl)(1-methylpiperidin-4-yloxy)methyl]phenylsulfanyl}propylamine] | 126 | < 30
41 | CN1CCC(OC(c2nc3cc(F)c(F)cc3[nH]2)c2cc(OC(F)(F)F)ccc2F)CC1 (stereo not drawn) [Example 511] | 79 | < 300
42 | CN1CCC(OC(c2cccc(OCCN)c2)c2nc3ccccc3s2)CC1 (stereo not drawn) [Example 271, 2-{3-[benzothiazol-2-yl(1-methylpiperidin-4-yloxy)methyl]phenoxy}ethylamine] | 76 | < 30
